Consider 17 molecules from US7186749B2, “Pyrrolo-naphthyl acids and methods for using them” (Wyeth, priority 2004, dated 2007).

The target in data set [1] is T1, recombinant human plasminogen activator inhibitor-1 (PAI-1) (Homo sapiens, UniProt P05121).
T1 construct: purchased Molecular Innovations, Royal Oak, Mich
The data set can be described thus: Primary screen for PAI-1 inhibition (chromogenic tPA activity, Spectrozyme-tPA). The class given is biochemical. As to conditions: 140 nM PAI-1, 70 nM tPA, pH 6.6; for inhibition at 10 µM: test compound 10 μM; for inhibition at 25 µM: test compound 25 μM. How it is done: Test compounds are dissolved in DMSO at a final concentration of 10 mM, then diluted 100× in physiologic buffer. The inhibitory assay is initiated by the addition of the test compound (1–100 μM final concentration, maximun DMSO concentration of 0.2%) in a pH 6.6 buffer containing 140 nM recombinant human plasminogen activator inhibitor-1 (PAI-1; Molecular Innovations, Royal Oak, Mich.). Following a 1 hour incubation at room temperature, 70 nM of recombinant human tissue plasminogen activator (tPA) is added, and the combination of the test compound, PAI-1 and tPA is incubated for an additional 30 minutes. Following the second incubation, Spectrozyme-tPA (American Diagnostica, Greenwich, Conn.), a chromogenic substrate for tPA, is added and absorbance read at 405 nm at 0 and 60 minutes. Relative PAI-1 inhibition is equal to the residual tPA activity in the presence of the test compound and PAI-1. Control treatments include the complete inhibition of tPA by PAI-1 at the molar ratio employed (2:1), and the absence of any effect of the test compound on tPA alone.

Data set [2] has as its target human PAI-1 (Homo sapiens, UniProt P05121). The data set can be described thus: Antibody assay for determining IC50 of inhibition of PAI-1 (active PAI-1 bound to tPA-coated plate). The class given is binding. Conditions: pH 7.5, human PAI-1 50 ng/ml. On the procedure:
This assay is based upon the non-SDS dissociable interaction between tPA and active PAI-1. Assay plates are initially coated with human tPA (10 μg/ml). Test compounds of the present invention are dissolved in DMSO at 10 mM, then diluted with physiologic buffer (pH 7.5) to a final concentration of 1–50 μM. Test compounds are incubated with human PAI-1 (50 ng/ml) for 15 minutes at room temperature. The tPA-coated plate is washed with a solution of 0.05% Tween 20 and 0.1% BSA, then the plate is blocked with a solution of 3% BSA. An aliquot of the pyrrolo-naphthyl/PAI-1 solution is then added to the tPA-coated plate, incubated at room temperature for 1 hour, and washed. Active PAI-1 bound to the plate is assessed by adding an aliquot of a 1:1000 dilution of the 33B8 monoclonal antibody against human PAI-1, and incubating the plate at room temperature for 1 hour (Molecular Innovations, Royal Oak, Mich.). The plate is again washed, and a solution of goat anti-mouse IgG-alkaline phosphatase conjugate is added at a 1:50,000 dilution in goat serum. The plate is incubated 30 minutes at room temperature, washed, and a solution of alkaline phosphatase substrate is added. The plate is incubated 45 minutes at room temperature, and color development is determined at OD405 nm. The quantitation of active PAI-1 bound to tPA at varying concentrations of the test compound is used to determine the IC50. Results are analyzed using a logarithmic best-fit equation. The assay sensitivity is 5 ng/ml of human PAI-1 as determined from a standard curve ranging from 0–100 ng/ml.

T1 sequence (P05121 24-402): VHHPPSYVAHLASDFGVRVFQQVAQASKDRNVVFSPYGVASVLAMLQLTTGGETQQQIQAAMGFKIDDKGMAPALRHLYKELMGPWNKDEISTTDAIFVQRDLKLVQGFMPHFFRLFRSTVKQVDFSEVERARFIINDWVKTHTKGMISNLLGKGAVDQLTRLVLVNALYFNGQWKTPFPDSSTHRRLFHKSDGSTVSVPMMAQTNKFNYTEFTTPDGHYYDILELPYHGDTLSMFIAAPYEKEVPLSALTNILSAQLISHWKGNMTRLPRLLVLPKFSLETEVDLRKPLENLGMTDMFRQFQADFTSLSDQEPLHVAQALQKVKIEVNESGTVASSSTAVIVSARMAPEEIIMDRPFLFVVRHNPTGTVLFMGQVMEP
human PAI-1, sequence (P05121 24-402): as above

A word on the inhibition: it is the change of the read-out against control, counted positive when it falls. For orientation: melting point means the temperature, or range, at which the solid turns liquid. `c1ccc(-c2ccc(-c3ccc4cc(OCc5nnn[nH]5)ccc4c3)n2-c2ccccc2)cc1` [Example 11, 5-({[6-(1,5-diphenyl-1H-pyrrol-2-yl)-2-naphthyl]oxy}methyl)-1H-tetraazole]: the melting point was 269 to 270 °C (dec.). Moreover, in data set [1], the inhibition at 10 µM was 30% and the inhibition at 25 µM amounted to 68%.

The molecule `O=C(O)C(Cc1ccccc1)Oc1ccc2cc(-c3ccc(-c4ccccc4)n3Cc3ccc(C(F)(F)F)cc3)ccc2c1` (stereo not drawn) [Example 8, 3-phenyl-2-[(6-{5-phenyl-1-[4-(trifluoromethyl)benzyl]-1H-pyrrol-2-yl}2-naphthyl)oxy]propanoic acid] showed a melting point of 153 to 155 °C. Further, in data set [1], the inhibition at 10 µM was found to be 43% and the inhibition at 25 µM turned out to be 62%.

In turn, `FC(F)(F)c1ccc(Cn2c(-c3ccccc3)ccc2-c2ccc3cc(OCc4nnn[nH]4)ccc3c2)cc1` [Example 9, 5-{[(6-{5-Phenyl-1-[4-(trifluoromethyl)benzyl]-1H-pyrrol-2-yl}-2-naphthyl)oxy]methyl}-1H-tetraazole] came in with a melting point of 173 to 175 °C. Moreover, in data set [1], the inhibition at 10 µM came out at 31% and the inhibition at 25 µM came out at 49%.

The molecule `Cn1c(-c2ccccc2)ccc1-c1ccc2cc(OC(Cc3ccccc3)C(=O)O)ccc2c1` (stereo not drawn) [Example 7, 2-{[6-(1-methyl-5-phenyl-1H-pyrrol-2-yl)-2-naphthyl]oxy}-3-phenylpropanoic acid] had a melting point of 171 to 173 °C. Also, in data set [1], the inhibition at 10 µM stood at 30% and the inhibition at 25 µM stood at 95%.

Take `O=C(O)COc1ccc2cc(-c3ccc(-c4ccccc4)n3-c3ccccc3)ccc2c1` [Example 12, {[6-(1,5-diphenyl-1H-pyrrol-2-yl)-2-naphthyl]oxy}acetic acid]: the melting point was 258 to 260 °C (dec.). In data set [1], the inhibition at 10 µM was 48% and the inhibition at 25 µM came out at 58%.

Molecule `O=C(O)c1ccc(COc2ccc3cc(-c4ccc(-c5ccccc5)[nH]4)ccc3c2)c(C(=O)O)c1` [Example 17, 4-({[6-(5-phenyl-1H-pyrrol-2-yl)-2-naphthyl]oxy}methyl)isophthalic acid] returned a melting point of 289 to 291 °C. Moreover, in data set [1], the inhibition at 10 µM came to 18% and the inhibition at 25 µM is 44%.

Consider `c1ccc(Cn2c(-c3ccccc3)ccc2-c2ccc3cc(OCc4nnn[nH]4)ccc3c2)cc1` [Example 4, 5-({[6-(1-benzyl-5-phenyl-1H-pyrrol-2-yl)-2-naphthyl]oxy}methyl)-1H-tetraazole], for which the melting point was 190 to 200 °C (dec.). Also, in data set [1], the inhibition at 10 µM stood at 11% and the inhibition at 25 µM worked out at 67%.

`O=C(O)c1ccc(COc2ccc3cc(-c4ccc(-c5ccccc5)n4-c4ccccc4)ccc3c2)cc1` [Example 15, 4-({[6-(1,5-diphenyl-1H-pyrrol-2-yl)-2-naphthyl]oxy}methyl)benzoic acid] yielded a melting point of 309 to 310 °C. Besides, in data set [1], the inhibition at 10 µM was 30% and the inhibition at 25 µM is 68%.

Broadly, the IC50 is the midpoint of a concentration-inhibition curve. Read a high IC50 as weaker potency. `c1ccc(-c2ccc(-c3ccc4cc(OCc5nnn[nH]5)ccc4c3)[nH]2)cc1` [Example 3, 5-({[6-(5-phenyl-1H-pyrrol-2-yl)-2-naphthyl]oxy}methyl)-1H-tetraazole]: the melting point is 237 to 240 °C (dec.). Moreover, in data set [1], the inhibition at 10 µM turned out to be 15% and the inhibition at 25 µM was 52%. The molecule further had an IC50 in data set [2] of 33 µM.

On to `Cn1c(-c2ccccc2)ccc1-c1ccc2cc(OCc3nnn[nH]3)ccc2c1` [Example 5, 5-({[6-(1-methyl-5-phenyl-1H-pyrrol-2-yl)-2-naphthyl]oxy}methyl)-1H-tetraazole], for which the melting point is 231 to 233 °C (dec.). In data set [1], the inhibition at 10 µM is 15% and the inhibition at 25 µM came out at 32%.

Take `O=C(O)C(Cc1ccccc1)Oc1ccc2cc(-c3ccc(-c4ccccc4)n3Cc3ccccc3)ccc2c1` (stereo not drawn) [Example 2, 2-{[6-(1-benzyl-5-phenyl-1H-pyrrol-2-yl)-2-naphthyl]oxy}-3-phenylpropanoic acid]: the melting point lay in the range of 70 to 80 °C. Also, in data set [1], the inhibition at 10 µM was 37% and the inhibition at 25 µM worked out at 66%. In addition, the IC50 in data set [2] was 16.1 µM.

Molecule `O=C(O)C(Cc1ccccc1)Oc1ccc2cc(-c3ccc(-c4ccccc4)[nH]3)ccc2c1` (stereo not drawn) [Example 1, 3-phenyl-2-{[6-(5-phenyl-1H-pyrrol-2-yl)-2-naphthyl]oxy}propanoic acid] gave a melting point of 176 to 178 °C. Also, in data set [1], the inhibition at 10 µM worked out at 12% and the inhibition at 25 µM worked out at 78%. This molecule also gave an IC50 in data set [2] of 44.4 µM.

On to `O=C(O)C(Cc1ccccc1)Oc1ccc2cc(-c3ccc(-c4ccccc4)n3-c3ccccc3)ccc2c1` (stereo not drawn) [Example 13, 2-{[6-(1,5-diphenyl-1H-pyrrol-2-yl)-2-naphthyl]oxy}-3-phenylpropanoic acid], for which the melting point is 194 to 196 °C (dec.). Moreover, in data set [1], the inhibition at 10 µM was determined as 33% and the inhibition at 25 µM stood at 60%.

`O=C(O)c1ccc(COc2ccc3cc(-c4ccc(-c5ccccc5)n4Cc4ccc(C(F)(F)F)cc4)ccc3c2)cc1` [Example 14, 4-{[(6-{5-phenyl-1-[4-(trifluoromethyl)benzyl]-1H-pyrrol-2-yl}-2-naphthyl)oxy]methyl}benzoic acid]: the melting point is 228 to 229 °C. For the same molecule, in data set [1], the inhibition at 10 µM was 23% and the inhibition at 25 µM is 31%.

`O=C(O)c1ccc(COc2ccc3cc(-c4ccc(-c5ccccc5)n4Cc4ccc(C(F)(F)F)cc4)ccc3c2)c(C(=O)O)c1` [Example 16, 4-{[(6-{5-phenyl-1-[4-(trifluoromethyl)benzyl]-1H-pyrrol-2-yl}-2-naphthyl)oxy]methyl}isophthalic acid] showed a melting point of 250 to 252 °C. Further, in data set [1], the inhibition at 10 µM is 40% and the inhibition at 25 µM was 63%.

With `O=C(O)COc1ccc2cc(-c3ccc(-c4ccccc4)n3Cc3ccc(C(F)(F)F)cc3)ccc2c1` [Example 10, [(6-{5-Phenyl-1-[4-(trifluoromethyl)benzyl]-1H-pyrrol-2-yl}-2-naphthyl)oxy]acetic acid], the melting point was in the range of 154 to 156 °C. Besides, in data set [1], the inhibition at 10 µM was determined as 29% and the inhibition at 25 µM was 55%.

As for `O=C(O)COc1ccc2cc(-c3ccc(-c4ccccc4)n3Cc3ccccc3)ccc2c1` [Example 6, {[6-(1-benzyl-5-phenyl-1H-pyrrol-2-yl)-2-naphthyl]oxy}acetic acid], the melting point was 171 to 172 °C. Also, in data set [1], the inhibition at 10 µM amounted to 14% and the inhibition at 25 µM was found to be 74%.
